Assay results: patent US12312292B2, “Long chain alkyl esteramine lipid compound, preparation method therefor and application thereof in nucleic acid delivery” (RinuaGene Biotechnology Co., Ltd., priority 2022, dated 2025)

Key:
[1] = tested on: luciferase mRNA; assay: Detection of reporter gene (luciferase mRNA) expression in mice in vivo; design: species or system BALB/c female mice; conditions: LNP-delivered luciferase mRNA, quadriceps muscle injection, IVIS 24 h after injection; dose (5 or 14 μg mRNA) not given
Method: The prepared LNP-encapsulated mRNA solution was diluted with PBS buffer to obtain the solution for injection. BALB/c female mice at about 20 g were injected with injection solution at the quadriceps muscle site of mice with an insulin syringe, and each mouse was injected with 50 μL. Two doses were designed: one dose of “5 μg mRNA per 50 μL of injection solution” and the other dose of “14 μg mRNA per 50 μL of injection solution”. BALB/c female mice at about 20 g are injected with PBS buffer at the quadriceps muscle site of mice with an insulin syringe, and each mouse was injected with 50 μL.
After the mice were injected for 24 h, in vivo expression of Luciferase was detected with Perkinelmer's IVIS. The substrate was D-luciferin Sodium salt (GOLDBIO, LUCNA-1G), which was formulated into a concentration of 15 mg/mL with normal saline, filtered and sterilized with a 0.22 μm filter membrane, and stored at −20° C. in aliquots protected from light. Before imaging, each mouse at about 20 g was intraperitoneally injected with 200 μL of substrate solution for 10-20 minutes, and then was anesthetized with isoflurane gas and placed prone on the imaging plate to detect the fluorescence of the animal in vivo, and the results are shown in Table 2.

[2] = tested on: BALB/c female mice; assay: Acute toxicity analysis of lipid molecules (cationic lipid LNP) in BALB/c female mice; conditions: blood 24 h after injection, Ave(SD)
[3] = In vivo expression distribution analysis of delivered luciferase mRNA (RT-PCR in tissues); design: species or system C57BL/6J mice; conditions: single intramuscular injection 50 μg; for Exposure in tissues and organs, from high to low: delivered luciferase mRNA, 2 h-336 h, RT-PCR
Method: In order to investigate the distribution features of lipid-delivering mRNA in vivo, we analyzed the distribution features of the reporter luciferase mRNA of the compounds of the present invention in C57BL/6J mice after administration by a single intramuscular injection. The experimental 10 C57BL/6J mice were enrolled, male and female, each administered 50 μg, with SM102 as the control.
Animals in the negative control group were collected at 2 h and 336 h after administration, and animals in the test group were collected at 2 h, 6 h, 24 h, 48 h, 72 h, 120 h, 168 h, and 336 h after administration whole blood, bone marrow, liver, spleen, heart, kidney, inguinal lymph nodes, mesenteric lymph nodes, spleen, brain, stomach, small intestine, non-injection site muscle, injection site muscle tissue, etc. The RNA content in the samples at each time point was detected by RT-PCR, and the lower limit of quantification of the method was […] to reflect the distribution features in C57BL/6J mice.

CCCCCCCCCCCOC(=O)CCCCCN(CCCCCCCC(=O)OC(CCCCCCCC)CCCCCCCC)C1(CO)CC1 [Example 14]
Average fluorescence intensity [1]: 1.91E+03 P/s/cm^2/sr

CCCCCCCCCCCOC(=O)CCCCCN(CCCCCCCCO)CCCCCCCC(=O)OC(CCCCCCCC)CCCCCCCC [Example 4]
Average fluorescence intensity [1]: 5.47E+05 P/s/cm^2/sr

CCCCCCCCCCCOC(=O)CCCCCN(CCCCCCCC(=O)OC(CCCCCCCC)CCCCCCCC)C(C)CCO (stereo not drawn) [Example 9]
Alanine aminotransferase ([2]; high dose group, 150 μg LNP/pc): 37.25 U/L | Alkaline phosphatase (ALP) ([2]; high dose group, 150 μg LNP/pc): 116.9 U/L | Aspartate aminotransferase ([2]; high dose group, 150 μg LNP/pc): 128.26 U/L | Creatinine ([2]; high dose group, 150 μg LNP/pc): 12.1 µmol/L | Total bilirubin (TBIL) ([2]; high dose group, 150 μg LNP/pc): 1.43 | γ-Glutamyltransferase (GGT) ([2]; high dose group, 150 μg LNP/pc): 0.18 (0.15) U/L | Alanine aminotransferase ([2]; low dose group, 50 μg/pc): 35.44 (3.67) U/L | Alkaline phosphatase (ALP) ([2]; low dose group, 50 μg/pc): 115.29 U/L | Aspartate aminotransferase ([2]; low dose group, 50 μg/pc): 107.55 U/L | Creatinine ([2]; low dose group, 50 μg/pc): 14.2 µmol/L | Total bilirubin (TBIL) ([2]; low dose group, 50 μg/pc): 1.21 (0.19) | γ-Glutamyltransferase (GGT) ([2]; low dose group, 50 μg/pc): 0.24 (0.37) U/L | Average fluorescence intensity [1]: 3.74E+05 P/s/cm^2/sr | Level of delivered mRNA in the small intestine ([3]; compared with SM-102): relatively higher level | Exposure in tissues and organs, from high to low [3]: inguinal lymph nodes, injection site muscles, non-injection site muscles, whole blood, spleen, bone marrow, mesenteric lymph nodes, heart, liver, kidney, small intestine, stomach and brain

CCCCCCCCCCCOC(=O)CCCCCN(CCCCCCCC(=O)OC(CCCCCCCC)CCCCCCCC)C(C)CCCO (stereo not drawn) [Example 8]
Average fluorescence intensity [1]: 1.17E+03 P/s/cm^2/sr

CCCCCCCCCCCOC(=O)CCCCCN(CCCCCO)CCCCCCCC(=O)OC(CCCCCCCC)CCCCCCCC [Example 1]
Alanine aminotransferase ([2]; high dose group, 150 μg LNP/pc): 38.16 U/L | Alkaline phosphatase (ALP) ([2]; high dose group, 150 μg LNP/pc): 112.7 U/L | Aspartate aminotransferase ([2]; high dose group, 150 μg LNP/pc): 125.26 U/L | Creatinine ([2]; high dose group, 150 μg LNP/pc): 12.4 µmol/L | Total bilirubin (TBIL) ([2]; high dose group, 150 μg LNP/pc): 1.56 | γ-Glutamyltransferase (GGT) ([2]; high dose group, 150 μg LNP/pc): 0.12 (0.12) U/L | Alanine aminotransferase ([2]; low dose group, 50 μg/pc): 33.46 (3.54) U/L | Alkaline phosphatase (ALP) ([2]; low dose group, 50 μg/pc): 114.38 U/L | Aspartate aminotransferase ([2]; low dose group, 50 μg/pc): 109.92 U/L | Creatinine ([2]; low dose group, 50 μg/pc): 13.8 µmol/L | Total bilirubin (TBIL) ([2]; low dose group, 50 μg/pc): 1.18 (0.13) | γ-Glutamyltransferase (GGT) ([2]; low dose group, 50 μg/pc): 0.22 (0.33) U/L | Average fluorescence intensity [1]: 1.218E+06 P/s/cm^2/sr | Exposure in tissues and organs, from high to low [3]: injection site muscle, inguinal lymph nodes, whole blood, spleen, non-injection site muscle, bone marrow, heart, liver, mesenteric lymph nodes, kidney, small intestine and brain

CCCCCCCCCCCOC(=O)CCCCCN(CCCCCCCC(=O)OC(CCCCCCCC)CCCCCCCC)CC(F)(F)CO [Example 11]
Average fluorescence intensity [1]: 1.39E+03 P/s/cm^2/sr

CCCCCCCCCCCOC(=O)CCCCCN(CCCCCCCC(=O)OC(CCCCCCCC)CCCCCCCC)CC1(CO)CCC1 [Example 15]
Average fluorescence intensity [1]: 1.57E+03 P/s/cm^2/sr

CCCCCCCCCCCOC(=O)CCCCCN(CCCCCCCCCO)CCCCCCCC(=O)OC(CCCCCCCC)CCCCCCCC [Example 5]
Average fluorescence intensity [1]: 5.67E+05 P/s/cm^2/sr

CCCCCCCCCCCOC(=O)CCCCCN(CCCCCCCCCCO)CCCCCCCC(=O)OC(CCCCCCCC)CCCCCCCC [Example 6]
Average fluorescence intensity [1]: 5.08E+05 P/s/cm^2/sr

CCCCCCCCCCCOC(=O)CCCCCN(CCCCCCCC(=O)OC(CCCCCCCC)CCCCCCCC)CC(C)(C)CO [Example 10]
Average fluorescence intensity [1]: 7.37E+03 P/s/cm^2/sr

CCCCCCCCCCCOC(=O)CCCCCN(CCCCCCCC(=O)OC(CCCCCCCC)CCCCCCCC)CC1(CO)CC1 [Example 12]
Average fluorescence intensity [1]: 3.62E+03 P/s/cm^2/sr

CCCCCCCCCCCOC(=O)CCCCCN(CCCCCCCO)CCCCCCCC(=O)OC(CCCCCCCC)CCCCCCCC [Example 3]
Average fluorescence intensity [1]: 8.55E+05 P/s/cm^2/sr
